Source: ChEMBL document CHEMBL3044556, “Managing weeds with drip-applied herbicides in tomato” (2008)

Experiments:
Format in all cases: functional
Eleusine indica [1] = assay: Pre-emergence herbicidal activity against Eleusine indica in tomato field assessed as number of weeds at 1.14 kg/ha applied through drip lines/backpack-spray on week 3 to 4 before transplanting measured 12 weeks after treatment (reference value: 9 plants/m2)
Digitaria [2] = assay: Pre-emergence herbicidal activity against Digitaria spp. in tomato field assessed as number of weeds at 1.14 kg/ha applied through drip lines/backpack-spray on week 3 to 4 before transplanting measured 12 weeks after treatment (reference value: 9 plants/m2)
Echinochloa colona [3] = assay: Pre-emergence herbicidal activity against Echinochloa colona in tomato field assessed as number of weeds at 1.14 kg/ha applied through drip lines/backpack-spray on week 3 to 4 before transplanting measured 12 weeks after treatment (reference value: 9 plants/m2)
Amaranthus dubius [4] = assay: Pre-emergence herbicidal activity against Amaranthus dubius in tomato field assessed as number of weeds at 1.14 kg/ha applied through drip lines/backpack-spray on week 3 to 4 before transplanting measured 12 weeks after treatment (reference value: 9 plants/m2)
Boerhavia erecta [5] = assay: Pre-emergence herbicidal activity against Boerhavia erecta in tomato field assessed as number of weeds at 1.14 kg/ha applied through drip lines/backpack-spray on week 3 to 4 before transplanting measured 12 weeks after treatment (reference value: 9 plants/m2)
Corynandra viscosa [6] = assay: Pre-emergence herbicidal activity against Cleome viscosa in tomato field assessed as number of weeds at 1.14 kg/ha applied through drip lines/backpack-spray on week 3 to 4 before transplanting measured 12 weeks after treatment (reference value: 9 plants/m2)
Portulaca oleracea [7] = assay: Pre-emergence herbicidal activity against Portulaca oleracea in tomato field assessed as number of weeds at 1.14 kg/ha applied through drip lines/backpack-spray on week 3 to 4 before transplanting measured 12 weeks after treatment (reference value: 9 plants/m2)
Trianthema [8] = assay: Pre-emergence herbicidal activity against Trianthema spp. in tomato field assessed as number of weeds at 1.14 kg/ha applied through drip lines/backpack-spray on week 3 to 4 before transplanting measured 12 weeks after treatment (reference value: 9 plants/m2)
Cyperus [9] = assay: Pre-emergence herbicidal activity against Cyperus in tomato field assessed as number of weeds at 1.14 kg/ha applied through drip lines/backpack-spray on week 3 to 4 before transplanting measured 12 weeks after treatment (reference value: 5 plants/m2)
Poaceae [10] = assay: Pre-emergence herbicidal activity against Poaceae (grass family) in tomato field assessed as number of weeds at 1.14 kg/ha applied through drip lines/backpack-spray on week 3 to 4 before transplanting measured 12 weeks after treatment (reference value: 8 plants/m2)
Eleusine indica [11] = assay: Pre-emergence herbicidal activity against Eleusine indica in tomato field assessed as number of weeds at 1.14 kg/ha applied through drip lines/backpack-spray on week 3 to 4 before transplanting measured 7 weeks after treatment (reference value: 9 plants/m2)
Trianthema [12] = assay: Pre-emergence herbicidal activity against Trianthema spp. in tomato field assessed as number of extra-large fruits at 1.14 kg/ha applied through drip lines/backpack-spray on week 3 to 4 before transplanting (reference value: 21.3 x 10 '3 ha); conditions: pooled result: one value given for 8 cell lines, strains, targets or settings
Amaranthus dubius [13] = assay: Pre-emergence herbicidal activity against Amaranthus dubius in tomato field assessed as increase in extra-large fruit weight at 1.14 kg/ha applied through drip lines/backpack-spray on week 3 to 4 before transplanting relative to untreated control
Eleusine indica [14] = assay: Pre-emergence herbicidal activity against Eleusine indica in tomato field assessed as increase in total marketable weight at 1.14 kg/ha applied through drip lines/backpack-spray on week 3 to 4 before transplanting relative to untreated control; conditions: pooled result: one value given for 8 cell lines, strains, targets or settings
Eleusine indica [15] = assay: Pre-emergence herbicidal activity against Eleusine indica in tomato field assessed as increase in extra-large fruit weight at 1.14 kg/ha applied through drip lines/backpack-spray on week 3 to 4 before transplanting relative to untreated control
Digitaria [16] = assay: Pre-emergence herbicidal activity against Digitaria spp. in tomato field assessed as increase in extra-large fruit weight at 1.14 kg/ha applied through drip lines/backpack-spray on week 3 to 4 before transplanting relative to untreated control
Echinochloa colona [17] = assay: Pre-emergence herbicidal activity against Echinochloa colona in tomato field assessed as increase in extra-large fruit weight at 1.14 kg/ha applied through drip lines/backpack-spray on week 3 to 4 before transplanting relative to untreated control
Trianthema [18] = assay: Pre-emergence herbicidal activity against Trianthema spp. in tomato field assessed as increase in extra-large fruit weight at 1.14 kg/ha applied through drip lines/backpack-spray on week 3 to 4 before transplanting relative to untreated control
Portulaca oleracea [19] = assay: Pre-emergence herbicidal activity against Portulaca oleracea in tomato field assessed as increase in extra-large fruit weight at 1.14 kg/ha applied through drip lines/backpack-spray on week 3 to 4 before transplanting relative to untreated control
Corynandra viscosa [20] = assay: Pre-emergence herbicidal activity against Cleome viscosa in tomato field assessed as number of weeds at 1.14 kg/ha applied through drip lines/backpack-spray on week 3 to 4 before transplanting measured 7 weeks after treatment (reference value: 9 plants/m2)
Portulaca oleracea [21] = assay: Pre-emergence herbicidal activity against Portulaca oleracea in tomato field assessed as number of weeds at 1.14 kg/ha applied through drip lines/backpack-spray on week 3 to 4 before transplanting measured 7 weeks after treatment (reference value: 9 plants/m2)
Trianthema [22] = assay: Pre-emergence herbicidal activity against Trianthema spp. in tomato field assessed as number of weeds at 1.14 kg/ha applied through drip lines/backpack-spray on week 3 to 4 before transplanting measured 7 weeks after treatment (reference value: 9 plants/m2)
Poaceae [23] = assay: Pre-emergence herbicidal activity against Poaceae (grass family) in tomato field assessed as number of weeds at 1.14 kg/ha applied through drip lines/backpack-spray on week 3 to 4 before transplanting measured 7 weeks after treatment (reference value: 6 plants/m2)
Cyperus [24] = assay: Pre-emergence herbicidal activity against Cyperus in tomato field assessed as number of weeds at 1.14 kg/ha applied through drip lines/backpack-spray on week 3 to 4 before transplanting measured 7 weeks after treatment (reference value: 3 plants/m2)
Digitaria [25] = assay: Pre-emergence herbicidal activity against Digitaria spp. in tomato field assessed as number of weeds at 1.14 kg/ha applied through drip lines/backpack-spray on week 3 to 4 before transplanting measured 7 weeks after treatment (reference value: 9 plants/m2)
Echinochloa colona [26] = assay: Pre-emergence herbicidal activity against Echinochloa colona in tomato field assessed as number of weeds at 1.14 kg/ha applied through drip lines/backpack-spray on week 3 to 4 before transplanting measured 7 weeks after treatment (reference value: 9 plants/m2)
Amaranthus dubius [27] = assay: Pre-emergence herbicidal activity against Amaranthus dubius in tomato field assessed as number of weeds at 1.14 kg/ha applied through drip lines/backpack-spray on week 3 to 4 before transplanting measured 7 weeks after treatment (reference value: 9 plants/m2)
Boerhavia erecta [28] = assay: Pre-emergence herbicidal activity against Boerhavia erecta in tomato field assessed as number of weeds at 1.14 kg/ha applied through drip lines/backpack-spray on week 3 to 4 before transplanting measured 7 weeks after treatment (reference value: 9 plants/m2)
Eleusine indica [29] = assay: Pre-emergence herbicidal activity against Eleusine indica in tomato field assessed as total number of fruits at 1.14 kg/ha applied through drip lines/backpack-spray on week 3 to 4 before transplanting (reference value: 49.5 x 10 '3 ha); conditions: pooled result: one value given for 8 cell lines, strains, targets or settings
Corynandra viscosa [30] = assay: Pre-emergence herbicidal activity against Cleome viscosa in tomato field assessed as increase in extra-large fruit weight at 1.14 kg/ha applied through drip lines/backpack-spray on week 3 to 4 before transplanting relative to untreated control
Boerhavia erecta [31] = assay: Pre-emergence herbicidal activity against Boerhavia erecta in tomato field assessed as increase in extra-large fruit weight at 1.14 kg/ha applied through drip lines/backpack-spray on week 3 to 4 before transplanting relative to untreated control

CCc1cccc(C)c1N(C(=O)CCl)[C@@H](C)COC [S-METOLACHLOR]
9 /m2: Activity (Cyperus [9])
2 /m2: Activity (Eleusine indica [1]) | Activity (Digitaria [2]) | Activity (Echinochloa colona [3]) | Activity (Amaranthus dubius [4]) | Activity (Boerhavia erecta [5]) | Activity (Corynandra viscosa [6]) | Activity (Portulaca oleracea [7]) | Activity (Trianthema [8]) | Activity (Cyperus [24])
3 /m2: Activity (Poaceae [10]) | Activity (Eleusine indica [11]) | Activity (Corynandra viscosa [20]) | Activity (Portulaca oleracea [21]) | Activity (Trianthema [22]) | Activity (Digitaria [25]) | Activity (Echinochloa colona [26]) | Activity (Amaranthus dubius [27]) | Activity (Boerhavia erecta [28])
75%: Activity (Amaranthus dubius [13]) | Activity (Eleusine indica [15]) | Activity (Digitaria [16]) | Activity (Echinochloa colona [17]) | Activity (Trianthema [18]) | Activity (Portulaca oleracea [19]) | Activity (Corynandra viscosa [30]) | Activity (Boerhavia erecta [31])
57%: Activity (Eleusine indica [14])
35 10^3 fruits/ha: Activity (Trianthema [12])
70.8 10^3 fruits/ha: fruit count (Eleusine indica [29])
0 /m2: Activity (Poaceae [23])
